From US9290529B2, “Carbonic anhydrase inhibitors and method of their production” (USTAV ORGANICKE CHEMIE A BIOCHEMIE AKADEMIE VED CESKE …, priority 2011, dated 2016) come the findings set out here.

Assay [1] addresses T1, human carbonic anhydrase II (hCA II) (Homo sapiens, UniProt P00918).
T1 construct: purchased Sigma Aldrich C6165
As to the kind of experiment: Colorimetric carbonic anhydrase inhibition assay (CO2 hydration, phenol red), hCA II. Type of assay: biochemical. The conditions noted are these: 0° C., HEPES pH 7.0. As for the experimental part:
(§1) The compounds were assayed for inhibition activity of two isoforms of human carbonic anhydrase: hCA II and hCA IX. The human carbonic anhydrase II (HCA II) was purchased from Sigma Aldrich (Cat. No. C6165) in the form of lyophilized protein, which was dissolved before use in 10 mmol·l^−1 HEPES pH 7.0 to a concentration of 300 μmol·l^−1 and further diluted as required. Human carbonic anhydrase IX (HCA IX) was prepared by recombinant expression system in insect (Drosophila expression system, Invitrogen). […] This protein was further purified from media by chelating chromatography carrier His-Select Nickel Affinity Gel (Sigma, Cat No. P6611) and gel chromatography (Superdex 200 GL 30/300, GE Healthcare) according to the manufacturer's recommendations.
(§2) The principle of the method is based on measuring the rate of acidification of the solution that is observed as the color-shift of the acid-base-indicator (fenol red). The reaction was conducted in a glass tube placed in an ice bath (0° C., all stock solutions and enzymes were kept at the same temperature). […] This was followed by a CO2 saturation (stream flow 50 ml/min.) using a needle (18 G) up to color transition of fenol-red from red to yellow (typically 60 seconds by default). […] End point of reaction was determined by visual comparison with reference tube containing acid-base indicator (0.01% (wt./vol.) Fenol-red) and the pH adjusted to 7.0. […] Molar activity was calculated according to the formula:
(§3) [formula] where tB is the time of negative control without enzyme and tS is the time measured with an enzyme sample (and inhibitor), nprot is the number of moles of protein present in the sample. The value of IC50 for the inhibitor concentration corresponds inhibitor contraction required to decrease the specific activity to half of the value of non-inhibited enzyme. Selectivity towards CA IX inhibitor was calculated as the ratio of IC50 values for inhibition of HCA II against the value of IC50 for inhibition CA IX enzyme.

In assay [2] the target is T2, human carbonic anhydrase IX (hCA IX) (Homo sapiens, UniProt Q16790).
T2 construct: Construct contained the extracellular CA domain (amino acid residues 139-390) cloned into the pMT/BiP/V5-His vector; His tag (from vector pMT/BiP/V5-His) (C); BiP secretion signal (from vector pMT/BiP/V5-His) (N); made in house; host or cells: Drosophila expression system (Invitrogen), insect cells, secreted into SF 900 II medium
As to the kind of experiment: Colorimetric carbonic anhydrase inhibition assay (CO2 hydration, phenol red), hCA IX. Format: biochemical. The settings on record: for IC50: 0° C., HEPES pH 7.0, recombinant extracellular CA domain, read-out: IC50 (hCA IX); for Selectivity to hCA IX IC50 (hCA II)/IC50 (hCA IX): ratio of IC50 values. Here is the method:
as §1, §2, §3

For another assay, the system named is HCT116 cells. As to the kind of experiment: Flow cytometric measurement of intracellular pH (pHi), HCT116 expressing CAIX. Format: cell-based, human. As for the experimental part:
(§4) The effect of carborane CAIX (carbonic anhydrase IX) inhibitors was evaluated on colorectal cancer cell line HCT116 expressing CAIX enzyme versus CA IX negative cell line of T-lymphoblastic leukemia CCRF-CEM. Acetazolamide, a known inhibitor of CAIX, was used as a standard. HCT116/CCRF-CEM cells were cultivated in McCoy/RPMI Media supplemented with 10% FCS and antibiotics and seeded at high density ([…] per 3.5 cm dish) to induce pericellular hypoxia and thus stimulate CA IX expression. Measurement of pHi was assessed as described in Cianchi et al. [Cianchi F., et al. Selective inhibition of carbonic anhydrase IX decreases cell proliferation and induces […] apoptosis in human cancer cells. The Journal of Pharmacology and Experimental Therapeutics, 2010, Vol. 334, No. 3, 710-719].
(§5) […] The pHi was measured by flow cytometry in cell cultures pretreated with 10 μM of pH sensitive probe carboxyseminaphtorhoda-fluor-1-acetoxymethyl ester (SNARF, Invitrogen, CA) for 15 min at 37° C. After incubation, the cells were washed twice with PBS. Because the addition of bicarbonate can affect pHi, all incubation and cell washes were performed in bicarbonate-free buffer. SNARF was excited at 488 nm and emitted at 580 and 640 nm. The ratio of the emission wavelengths at 640/580 nm was then used to estimate the pHi from a calibration curve. The calibration curve was prepared by nigericin clamp technique. In this method, after the SNARF labeling of untreated cells, aliquots of cell suspensions were re-suspended in a high potassium containing buffer at specific pH (usually 6.8, 7.0, 7.2, 7.4, 7.6 and 7.8). The cell suspensions were then clamped at a specific pH value by the addition of 0.03 μM nigericin (Sigma-Aldrich). Nigericin is a ionophore that allows the exchange of H for K ions, thus abolishing the pH gradient across the cell membrane. When the internal and external K concentrations are approximately equal, the pH rapidly equilibrates to the pH of the bathing solution. A total of 20,000 events were acquired on a FACS ARIA II flow cytometer (Becton. Dickinson) for further analysis.
(§6) The fluorescent ratio values (640/580 nm) calculated for each pH point were further used to construct calibration curve in Prism software (GraphPad Software, Inc., San Diego, Calif.), from which the pHi values in treated cells were determined (Table 3).

A further assay relates to CCRF-CEM cells. As to the kind of experiment: Flow cytometric measurement of intracellular pH (pHi), CA IX negative CCRF-CEM. Type of assay: cell-based, human. The conditions noted are these: 50 μM acetazolamide, 24 hour incubation, control 7.362. As for the experimental part: as §4, §5, §6
On the technique in general: In flow cytometry, cells or beads pass a laser one at a time.

For the compound “1,1′-bis(3-sulfamoylpropyl)-3,3′-commo-bis(1,2-dicarba-3-cobalta(III)-closo-dodecabor)ate (1-) [CB-25]”, the values for the IC50 in assay [1] and in assay [2] were 40 nM and 4 nM, respectively. Moreover, the “Selectivity to hCA IX IC50 (hCA II)/IC50 (hCA IX)” value (shortened to “Selectivity to hCA IX IC50”) in assay [2] worked out at 10.
Turning to “1-(2-sulfonamidethyl)-1,2-dicarba-closo-dodecaborane [CB-23]”, in assay [1], the IC50 was determined as 400 nM. Moreover, in assay [2], the IC50 was 380 nM and the “Selectivity to hCA IX IC50” value came out at 1.05.
Compound “1-(3-sulfamoyl-propyl)-3,3′-commo-(decahydro-1,2-dicarba-3-cobalta(III)-undecahydro-1′,2″-dicarba-closo-dodecabor)ate (1-), sodium salt dihydrate [CB-26]” displayed an IC50 in assay [1] of 110 nM. Moreover, in assay [2], the IC50 worked out at 14 nM and the “Selectivity to hCA IX IC50” value amounted to 7.9.
Regarding “1-ethylenenesulfamide-3,3′-commo-bis(1,2-dicarba-3-cobalta(III)-closo-dodecabor)ate (1-) [CB-30]”, in assay [1], the IC50 was 570 nM. Besides, in assay [2], the IC50 was 0.7 nM and the “Selectivity to hCA IX IC50” value worked out at 814.
The matching figures for “1-propylenesulfamide-3,3′-commo-bis(1,2-dicarba-3-cobalta(III)-closo-dodecabor)ate (1-) [CB-29]”: 3900 nM, 22 nM and 177.
The matching figures for “9-sulfamide-10′-amine-2,2′-commo-(1,7,9-tricarba-1′,7′, 10′-tricarba-2-ferra(H)-closo-dodekabor)ane [CB-11]”: 83900 nM, 1500 nM and 55.9.
As for `CC(=O)Nc1nnc(S(N)(=O)=O)s1` [acetazolamide, reference compound], the pHi in the assay on HCT116 cells (HCT116, 50 μM acetazolamide, 24 hour incubation, control 7.516) came to 7.47; with CCRF-CEM cells, 7.34. Besides, the “intracellular acidification in HCT116 cells” value in the assay on HCT116 cells (carboranes 1 μM versus acetazolamide 50 μM) is listed as “mild intracellular acidification”.

A word on the IC50: it is the concentration that inhibits the measured activity by half.
